Where two headings read alike, the source gives them in different places.

Assay [1] deals with SARS-CoV-2-NLuc. Put plainly: microbe, parasite or virus in culture. In kind it is cell-based, SARS Coronavirus 2.
Assay [2] addresses recombinant SARS-CoV-2 Main protease (Mpro) (Severe acute respiratory syndrome coronavirus 2 (2019-nCoV) (SARS-CoV-2), UniProt P0DTD1). Kind of assay: Cov Mpro Biochemical IC50 Assay. Conditions: recombinant SARS-CoV-2 Mpro, fluorogenic peptide substrate; read-out: MPro IC50.
[3] abbreviates: Severe acute respiratory syndrome coronavirus, 48 h, read-out: MPro EC50.
Setting [4] is: Severe acute respiratory syndrome coronavirus, 48 h; read-out: MPro EC50.

For orientation: EC50 means the concentration giving half of the maximal effect. The term IC50 denotes the concentration that inhibits the measured activity by half. Regarding `COc1cccc(C#N)c1-c1ccc2c(=O)n(-c3cncc4ccccc34)c(=O)[nH]c2c1` [Example 71], in assay [1] (setting [3]), the half-maximal effective concentration (EC50) was determined as 141 nM. Further, in assay [2], the 50% inhibitory concentration (IC50) is 76.4 nM.
On the same counts, the results for `COc1cccc(C(N)=O)c1-c1ccc2c(=O)n(-c3cncc4ccccc34)c(=O)[nH]c2c1` [Example 72] are above 50000 nM and 8200 nM.
For the molecule `O=c1[nH]c2cc(-c3ccccc3Cl)ccc2c(=O)n1-c1cncc2ccccc12` [Example 73, 7-(2-chlorophenyl)-3-(isoquinolin-4-yl)quinazoline-2,4(1H,3H)-dione], the EC50 in assay [1] (setting [3]) turned out to be 262 nM. The 50% inhibitory concentration (IC50) in assay [2] was determined as 159 nM.
The matching figures for `O=c1[nH]c2cc(-c3ccccc3-c3ccccc3Cl)ccc2c(=O)n1-c1cncc2ccccc12` [Example 74, 7-(2′-chloro-[1,1′-biphenyl]-2-yl)-3-(isoquinolin-4-yl)quinazoline-2,4(1H,3H)-dione]: 711 nM and 470 nM.
On the same counts, the results for `Cc1c(-c2ccccc2Cl)sc2[nH]c(=O)n(-c3cncc4ccccc34)c(=O)c12` [Example 75] are 9390 nM and 854 nM.
On the same counts, the results for `Cc1c(-c2ccccc2Cl)sc2c(=O)n(-c3cncc4ccccc34)c(=O)[nH]c12` [Example 76] are 7400 nM and 2780 nM.
Turning to `COc1cc2c(=O)n(-c3cncc4ccccc34)c(=O)[nH]c2cc1-c1c(Cl)cccc1OC` [Example 77], the EC50 in assay [1] (setting [4]) is 115 nM. Further, the half-maximal inhibitory concentration (IC50) in assay [2] was determined as 131 nM.
In the case of `O=c1[nH]c2sc(-c3ccccc3Cl)nc2c(=O)n1-c1cncc2ccccc12` [Example 78], the EC50 in assay [1] (setting [3]) stood at 9530 nM. In addition, the IC50 in assay [2] was 404 nM.
The matching figures for `O=c1[nH]c2c(Cl)c(-c3ccccc3Cl)ccc2c(=O)n1-c1cncc2ccccc12` [Example 79]: 12100 nM and 14000 nM.
On the same counts, the results for `O=c1[nH]c2cc(-c3ccccc3Cl)c(OC3CC3)cc2c(=O)n1-c1cncc2ccccc12` [Example 80] are 232 nM and 768 nM.
The matching figures for `Cc1cc2c(=O)n(-c3cncc4ccccc34)c(=O)[nH]c2cc1-c1ccccc1Cl` [Example 81]: 184 nM and 231 nM.
Take `O=c1[nH]c2c(F)c(-c3ccccc3Cl)ccc2c(=O)n1-c1cncc2ccccc12` [Example 82]: the concentration giving a half-maximal response (EC50) in assay [1] (setting [3]) is 2860 nM. For the same molecule, the IC50 in assay [2] came out at 1370 nM.
The matching figures for `COc1cc2c(=O)n(-c3cncc4ccccc34)c(=O)[nH]c2cc1-c1ccccc1Cl` [Example 83]: 122 nM and 109 nM.
The matching figures for `O=c1[nH]c2cc(-c3ccsc3Cl)ccc2c(=O)n1-c1cncc2ccccc12` [Example 84]: 1030 nM and 604 nM.
For the molecule `O=c1[nH]c2cc(-c3ccsc3-c3ccsc3Cl)ccc2c(=O)n1-c1cncc2ccccc12` [Example 85], the EC50 in assay [1] (setting [3]) came to 751 nM. In addition, the concentration for half-maximal inhibition (IC50) in assay [2] came to 1490 nM.
As for `O=c1[nH]c2cc(-c3c(Cl)cccc3OCc3cscn3)ccc2c(=O)n1-c1cncc2ccccc12` [Example 86, 7-[2-chloro-6-(thiazol-4-ylmethoxy)phenyl]-3-(4-isoquinolyl)-1H-quinazoline-2,4-dione], in assay [1] (read-out: MPro EC50), the concentration giving a half-maximal response (EC50) worked out at 144 nM. Besides, in assay [2], the IC50 was determined as 112 nM.
As for `Cc1nc(COc2cccc(Cl)c2-c2ccc3c(=O)n(-c4cncc5ccccc45)c(=O)[nH]c3c2)co1` [Example 87], the EC50 in assay [1] (setting [3]) was determined as 203 nM. Besides, the half-maximal inhibitory concentration (IC50) in assay [2] is 172 nM.
The matching figures for `Cn1cnc(COc2cccc(Cl)c2-c2ccc3c(=O)n(-c4cncc5ccccc45)c(=O)[nH]c3c2)n1` [Example 88]: 630 nM and 233 nM.
Turning to `COc1cccc(C)c1-c1ccc2c(=O)n(-c3cncc4ccccc34)c(=O)[nH]c2c1` [Example 89], in assay [1] (setting [3]), the half-maximal effective concentration (EC50) came out at 881 nM. For the same molecule, the IC50 in assay [2] amounted to 860 nM.
As to `Cn1cnc(COc2ccc(Cl)c(-c3ccc4c(=O)n(-c5cncc6ccccc56)c(=O)[nH]c4c3)c2)n1` [Example 90], the EC50 in assay [1] (setting [3]) stood at 886 nM. For the same molecule, the IC50 in assay [2] was found to be 487 nM.
The matching figures for `NC(=O)COc1cccc(Cl)c1-c1ccc2c(=O)n(-c3cncc4ccccc34)c(=O)[nH]c2c1` [Example 91]: 1140 nM and 216 nM.
On the same counts, the results for `COc1ccc(Cl)c(-c2ccc3c(=O)n(-c4cncc5ccccc45)c(=O)[nH]c3c2)c1` [Example 92, 7-(2-chloro-5-methoxy-phenyl)-3-(4-isoquinolyl)-1H-quinazoline-2,4-dione] are 37.5 nM and 33.9 nM.
The matching figures for `O=c1[nH]c2cc(-c3c(Cl)cccc3OCc3ccnnc3)ccc2c(=O)n1-c1cncc2ccccc12` [Example 93]: 95 nM and 11.4 nM.
As to `Cc1nccnc1COc1cccc(Cl)c1-c1ccc2c(=O)n(-c3cncc4ccccc34)c(=O)[nH]c2c1` [Example 94], the EC50 in assay [1] (setting [3]) was 269 nM. In addition, the IC50 in assay [2] was found to be 210 nM.
`O=c1[nH]c2cc(-c3c(Cl)cccc3Cl)ccc2c(=O)n1-c1cncc2ccccc12` [Example 95, 7-(2,6-dichlorophenyl)-3-(isoquinolin-4-yl)quinazoline-2,4(1H,3H)-dione]: the EC50 in assay [1] (setting [4]) was found to be 680 nM. Further, the IC50 in assay [2] was 1590 nM.
Take `Cc1cccc(C#N)c1-c1ccc2c(=O)n(-c3cncc4ccccc34)c(=O)[nH]c2c1` [Example 96]: the concentration giving a half-maximal response (EC50) in assay [1] (setting [3]) amounted to 296 nM. The IC50 in assay [2] came to 151 nM.
The matching figures for `Cc1cccc(-c2ccccc2)c1-c1ccc2c(=O)n(-c3cncc4ccccc34)c(=O)[nH]c2c1` [Example 97]: 266 nM and 397 nM.
The matching figures for `N#Cc1cccc(Cl)c1-c1ccc2c(=O)n(-c3cncc4ccccc34)c(=O)[nH]c2c1` [Example 98]: 198 nM and 213 nM.
On the same counts, the results for `O=c1[nH]c2cc(-c3c(Cl)cccc3CO)ccc2c(=O)n1-c1cncc2ccccc12` [Example 99] are 492 nM and 216 nM.
In the case of `COCc1cccc(Cl)c1-c1ccc2c(=O)n(-c3cncc4ccccc34)c(=O)[nH]c2c1` [Example 100], the half-maximal effective concentration (EC50) in assay [1] (setting [3]) worked out at 448 nM. Besides, the concentration for half-maximal inhibition (IC50) in assay [2] is 326 nM.
`O=c1[nH]c2cc(-c3c(Cl)cccc3-c3ccnnc3)ccc2c(=O)n1-c1cncc2ccccc12` [Example 101, 7-(2-chloro-6-(pyridazin-4-yl)phenyl)-3-(isoquinolin-4-yl)quinazoline-2,4(1H,3H)-dione]: the EC50 in assay [1] (setting [4]) turned out to be 73.8 nM. Besides, in assay [2], the concentration for half-maximal inhibition (IC50) is 13.7 nM.
For `Cc1cc(-c2cccc(Cl)c2-c2ccc3c(=O)n(-c4cncc5ccccc45)c(=O)[nH]c3c2)cn2ncnc12` [Example 102], the EC50 in assay [1] (setting [3]) came to 16.1 nM. Besides, the IC50 in assay [2] was 15.7 nM.
On the same counts, the results for `O=c1[nH]c2cc(-c3c(Cl)cccc3-c3ccccc3)ccc2c(=O)n1-c1cncc2ccccc12` [Example 103] are 83.4 nM and 388 nM.
Consider `Cc1ccc2cncc(-n3c(=O)[nH]c4cc(-c5ccccc5Cl)sc4c3=O)c2c1` [Example 106, 6-(2-chlorophenyl)-3-(6-methylisoquinolin-4-yl)thieno[3,2-d]pyrimidine-2,4(1H,3H)-dione], for which the half-maximal effective concentration (EC50) in assay [1] (setting [4]) is 73 nM. Moreover, the IC50 in assay [2] was 23.7 nM.
For `O=c1[nH]c2cc(-c3ccccc3Cl)sc2c(=O)n1-c1cncc2c1CCC2` [Example 107], in assay [1] (setting [3]), the EC50 was 71.7 nM. Further, the half-inhibitory concentration (IC50) in assay [2] is 31.8 nM.

Values taken from US20240116946A1 (Gilead Sciences, Inc., priority 2022, published 2024).
